Read-outs that look alike come from different tables or passages of the source.
Experiments:
Assay type in all cases: cell-based
[1] = system: CD8 T cells; assay: CD69 expression on aCD3/aCD28 stimulated isolated human CD8 T cells (flow cytometry); conditions: T-cell, 24 h after TCR stimulation, read-out: Activity Class CD69 (CD8)
Protocol: (§1) Isolated T cells were plated in Xvivo medium at 1.5*10 ^5 cells per in 96 well culture plates and TCR-stimulated with anti-CD3/28 mAbs in the presence of compound as indicated. Cytokine production was determined at 24 h or 48 h following TCR stimulation in cell culture supernatants using commercially available ELISA kits (BD and eBioscience) as recommended by the manufacturer. T cell proliferation and CD25 expression (CD25-PC5 reagent purchased from Beckman Coulter) was determined by flow cytometry (Beckman-Coulter FC500) and analysed with Kaluza Software. For measurement of CD69 expression, isolated CD4 and CD8 T cells were plated in Xvivo medium at […] per in 96 well culture plates and TCR-stimulated with anti-CD3/28 mAbs in the presence of compound. CD69 expression was determined at 24 h following TCR stimulation by flow cytometry (CD4eF450, CD8APCeF780 and CD69-PC7 reagent purchased from eBioscience) and analysed with Kaluza Software.
(§2) For measurement of CD69 expression, isolated CD4 and CD8 T cells were plated in Xvivo medium at 80000 cells per in 96 well culture plates and TCR-stimulated with anti-CD3/28 mAbs in the presence of compound. CD69 expression was determined at 24 h following TCR stimulation by flow cytometry (CD4eF450, CD8APCeF780 and CD69-PC7 reagent purchased from eBioscience) and analysed with Kaluza Software.

[2] = system: aCD3/aCD28-stimulated human CD4+-T-cells; assay: IL-2 production and activation markers in aCD3/aCD28 stimulated isolated human CD4+-T-cells; conditions: IL-2 production at 3 μM compound
Outline: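 CD4+ T cells isolated from buffy-coat PBMCs by microbeads were plated in Xvivo medium (1.5*10^5 cells/well) and stimulated with anti-CD3/28 mAbs plus compound. IL-2 measured by ELISA in supernatants at 24 h or 48 h; CD25 and proliferation by flow cytometry, CD69 at 24 h. Activity classes based on IL-2 at 3 μM compound.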

[3] = system: CD4 T cells; assay: CD69 expression on aCD3/aCD28 stimulated isolated human CD4 T cells (flow cytometry); conditions: 24 h after TCR stimulation, read-out: Activity Class CD69 (CD4)
Protocol: as §1, §2

[4] = system: aCD3/aCD28-stimulated human PBMCs; assay: Cytokine production in aCD3/aCD28 stimulated human PBMCs; conditions: PBMC, 18 h
Outline: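 Ficoll-isolated human PBMCs at 1e6 cells/mL in X-Vivo15, stimulated with soluble anti-CD3/CD28 (OKT3 and 28.2, 1 μg/mL each) plus compound for 18 h at 37° C. Supernatant cytokines quantified by MSD or HTRF.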

[5] = enhancement of IFN-γ production, read-out: Activity Class IFN-γ
[6] = enhancement of IL-2 production, read-out: Activity Class IL-2

SMILES | EC50 [1] | Activity Class CD4+ [2] | EC50 [3] | EC50 [4, 5] | EC50 [4, 6]
Cl.N[C@H]1CS(=O)(=O)c2cc(F)c(C(=O)NCc3ccc(F)cc3)cc2N(Cc2ccc(Cl)cc2)C1=O [Example 68, (3R)-3-amino-5-[(4-chlorophenyl)methyl]-8-fluoro-N-[(4-fluorophenyl)methyl]-1,1,4-trioxo-2,3,4,5-tetrahydro-1λ^6,5-benzothiazepine-7-carboxamide hydrochloride] | < 1580 nM | A (IL-2 production at 3 μM compound concentration >10 ng/mL) | < 1580 nM | < 1580 nM | < 1580 nM
CCCCNC(=O)c1cc2c(cc1F)S(=O)(=O)C[C@H](N)C(=O)N2Cc1ccc(Cl)cc1.Cl [Example 69, (3R)-3-amino-N-butyl-5-[(4-chlorophenyl)methyl]-8-fluoro-1,1,4-trioxo-2,3,4,5-tetrahydro-1λ^6,5-benzothiazepine-7-carboxamide hydrochloride] | < 1580 nM | A (IL-2 production at 3 μM compound concentration >10 ng/mL) | < 1580 nM | < 1580 nM | < 1580 nM
Cl.N[C@H]1CS(=O)(=O)c2cc(F)c(C(=O)NCC3CCOCC3)cc2N(Cc2ccc(Cl)cc2)C1=O [Example 71, (3R)-3-amino-5-[(4-chlorophenyl)methyl]-8-fluoro-N-(oxan-4-ylmethyl)-1,1,4-trioxo-2,3,4,5-tetrahydro-1λ^6,5-benzothiazepine-7-carboxamide hydrochloride] | < 1580 nM | B (IL-2 production at 3 μM compound concentration between 2-10 ng/mL) | < 1580 nM | < 1580 nM | < 1580 nM
Cl.N[C@H]1CS(=O)(=O)c2cc(F)c(C(=O)NCC3CCOCC3)cc2N(Cc2ccc(OC(F)(F)F)cc2)C1=O [Example 72, (3R)-3-amino-8-fluoro-N-(oxan-4-ylmethyl)-1,1,4-trioxo-5-{[4-(trifluoromethoxy)-phenyl]methyl}-2,3,4,5-tetrahydro-1λ^6,5-benzothiazepine-7-carboxamide hydrochloride] | 1580 to 5010 nM | A (IL-2 production at 3 μM compound concentration >10 ng/mL) | < 1580 nM | < 1580 nM | < 1580 nM
Cl.N[C@H]1CS(=O)(=O)c2cc(F)c(C(=O)NCCCC(F)(F)F)cc2N(Cc2ccc(OC(F)(F)F)cc2)C1=O [Example 73, (3R)-3-amino-8-fluoro-1,1,4-trioxo-N-(4,4,4-trifluorobutyl)-5-{[4-(trifluoromethoxy)-phenyl]methyl}-2,3,4,5-tetrahydro-1λ^6,5-benzothiazepine-7-carboxamide hydrochloride] | < 1580 nM | A (IL-2 production at 3 μM compound concentration >10 ng/mL) | < 1580 nM | < 1580 nM | < 1580 nM
Cl.N[C@H]1CS(=O)(=O)c2cc(F)c(C(=O)NC3CCC(F)(F)C3)cc2N(Cc2ccc(Cl)cc2)C1=O (stereo partly drawn) [Example 105, (3R)-3-amino-5-[(4-chlorophenyl)methyl]-N-(3,3-difluorocyclopentyl)-8-fluoro-1,1,4-trioxo-2,3,4,5-tetrahydro-1λ^6,5-benzothiazepine-7-carboxamide hydrochloride] | < 1580 nM | A (IL-2 production at 3 μM compound concentration >10 ng/mL) | < 1580 nM | < 1580 nM | < 1580 nM
N[C@H]1CS(=O)(=O)c2cc(Cl)c(C(=O)N[C@@H]3CC3(F)F)cc2N(Cc2ccc(Cl)cc2)C1=O [Example 175, (3R)-3-amino-8-chloro-5-[(4-chlorophenyl)methyl]-N-[(1R)-2,2-difluorocyclopropyl]-1,1,4-trioxo-2,3,4,5-tetrahydro-1λ^6,5-benzothiazepine-7-carboxamide] | 1580 to 5010 nM | – | < 1580 nM | 1580 to 5010 nM | > 5010 nM
N[C@H]1CS(=O)(=O)c2ccc(C(=O)NCCN3CCOCC3)cc2N(Cc2ccc(Cl)cc2)C1=O [Example 176, (3R)-3-amino-5-[(4-chlorophenyl)methyl]-N-[2-(morpholin-4-yl)ethyl]-1,1,4-trioxo-2,3,4,5-tetrahydro-1λ^6,5-benzothiazepine-7-carboxamide] | > 5010 nM | – | > 5010 nM | > 5010 nM | > 5010 nM
C#CCOc1ccc(CNC(=O)c2cc3c(cc2F)S(=O)(=O)C[C@H](N)C(=O)N3Cc2ccc(Cl)cc2)cc1 [Example 178, (3R)-3-amino-5-[(4-chlorophenyl)methyl]-8-fluoro-1,1,4-trioxo-N-{[4-(prop-2-yn-1-yloxy)phenyl]methyl}-2,3,4,5-tetrahydro-1λ^6,5-benzothiazepine-7-carboxamide] | < 1580 nM | – | < 1580 nM | < 1580 nM | < 1580 nM
N[C@H]1CS(=O)(=O)c2ccc(C(=O)N[C@@H]3CC3(F)F)cc2N(Cc2ccc(C(F)(F)F)cc2)C1=O [Example 179, (3R)-3-amino-N-[(1R)-2,2-difluorocyclopropyl]-1,1,4-trioxo-5-{[4-(trifluoromethyl)phenyl]methyl}-2,3,4,5-tetrahydro-1λ^6,5-benzothiazepine-7-carboxamide] | < 1580 nM | – | < 1580 nM | 1580 to 5010 nM | < 1580 nM
N[C@H]1CS(=O)(=O)c2ccc(C(=O)NC3CC3(F)F)cc2N(Cc2ccc(Br)cc2)C1=O (stereo partly drawn) [Example 180, (3R)-3-amino-5-[(4-bromophenyl)methyl]-N-(2,2-difluorocyclopropyl)-1,1,4-trioxo-2,3,4,5-tetrahydro-1λ^6,5-benzothiazepine-7-carboxamide] | < 1580 nM | – | < 1580 nM | < 1580 nM | < 1580 nM
